Laboratory results as given in patent US9187471B2, “Pyrido [4,3-b] indole and pyrido [3,4-b] indole derivatives and methods of use” (Medivation Technologies, Inc., priority 2010, dated 2015).

Assays:
[1] = target: T1, human recombinant serotonin (5-Hydroxytryptamine) 5-HT5A receptor (Homo sapiens, UniProt P47898); experiment: Serotonin 5-HT5A radioligand binding ([3H]LSD); details: compound at 0.1 μM; read-out: Inhibition of ligand binding, Serotonin 5-HT5A (percent inhibition of specific binding)
T1 construct: expressed in transfected cells; host or cells: CHO-K1
Description: Compounds of the invention were incubated with 1.7 nM [^3H]Lysergic acid diethylamide (LSD) for 60 min at 37° C. […] Receptor proteins were filtered and washed, the filters were counted to determine [^3H]LSD specifically bound.

[2] = target: T2, human recombinant serotonin (5-Hydroxytryptamine) 5-HT2A receptor (Homo sapiens, UniProt P28223); experiment: Serotonin 5-HT2A radioligand binding ([3H]Ketanserin); details: compound at 0.1 μM; read-out: Inhibition of ligand binding, Serotonin 5-HT2A (percent inhibition of specific binding)
T2 construct: expressed in transfected cells; host or cells: CHO-K1
Description: Compounds of the invention were incubated with 0.5 nM [^3H]Ketanserin for 60 min at 25° C. Non-specific binding was estimated in the presence of 1 μM Mianserin. Receptor proteins were filtered and washed, the filters were then counted to determine [^3H]Ketanserin specifically bound.

[3] = target: T3, human recombinant serotonin (5-Hydroxytryptamine) 5-HT7 receptor (Homo sapiens, UniProt P34969); experiment: Serotonin 5-HT7 radioligand binding ([3H]LSD); details: compound at 0.1 μM; read-out: Inhibition of ligand binding, Serotonin 5-HT7 (percent inhibition of specific binding)
T3 construct: expressed in transfected cells; host or cells: CHO
Description: Lysergic acid diethylamide (LSD) for 120 min. at 25° C. […] Receptor proteins were filtered and washed, the filters were then counted to determine [^3H]LSD specifically bound.

[4] = target: T4, human recombinant dopamine D2L receptor (Homo sapiens, UniProt P14416); experiment: Dopamine D2L radioligand binding ([3H]Spiperone); details: 0.16 nM [3H]Spiperone; for inhibition at 1 µM: read-out: Dopamine D2L (1 μM), percent inhibition of specific binding, compound at 1 μM; for inhibition at 0.1 µM: read-out: Dopamine D2L (0.1 μM), percent inhibition of specific binding, compound at 0.1 μM
T4 construct: expressed in transfected cells; host or cells: CHO
Description: Non-specific binding was estimated in the presence of 10 μM Haloperidol. Receptor proteins were filtered and washed, the filters were then counted to determine [^3H]Spiperone specifically bound.

T1 sequence (P47898 whole entry): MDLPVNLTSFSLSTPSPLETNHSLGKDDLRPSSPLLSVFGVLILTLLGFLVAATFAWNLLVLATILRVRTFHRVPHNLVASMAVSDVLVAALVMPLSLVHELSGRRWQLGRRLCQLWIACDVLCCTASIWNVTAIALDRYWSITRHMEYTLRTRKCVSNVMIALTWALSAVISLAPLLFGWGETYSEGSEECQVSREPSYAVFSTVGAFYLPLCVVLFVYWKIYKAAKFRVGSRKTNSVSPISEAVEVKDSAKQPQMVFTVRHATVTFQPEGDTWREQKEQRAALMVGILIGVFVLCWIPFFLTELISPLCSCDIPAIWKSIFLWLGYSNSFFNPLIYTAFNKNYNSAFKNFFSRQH
T3 sequence (P34969 whole entry): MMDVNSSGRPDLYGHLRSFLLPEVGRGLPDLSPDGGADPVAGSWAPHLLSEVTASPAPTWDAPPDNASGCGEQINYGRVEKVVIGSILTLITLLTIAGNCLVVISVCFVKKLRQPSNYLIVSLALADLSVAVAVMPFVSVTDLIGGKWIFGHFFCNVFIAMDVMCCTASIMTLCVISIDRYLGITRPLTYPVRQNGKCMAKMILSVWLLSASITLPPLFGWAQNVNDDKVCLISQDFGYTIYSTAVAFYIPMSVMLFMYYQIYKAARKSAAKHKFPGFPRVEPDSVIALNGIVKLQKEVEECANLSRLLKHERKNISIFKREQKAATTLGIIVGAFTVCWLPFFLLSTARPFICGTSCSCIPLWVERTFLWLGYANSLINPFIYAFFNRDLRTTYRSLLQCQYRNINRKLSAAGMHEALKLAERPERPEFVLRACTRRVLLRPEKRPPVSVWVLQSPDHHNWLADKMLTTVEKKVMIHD
T4 sequence (P14416 whole entry): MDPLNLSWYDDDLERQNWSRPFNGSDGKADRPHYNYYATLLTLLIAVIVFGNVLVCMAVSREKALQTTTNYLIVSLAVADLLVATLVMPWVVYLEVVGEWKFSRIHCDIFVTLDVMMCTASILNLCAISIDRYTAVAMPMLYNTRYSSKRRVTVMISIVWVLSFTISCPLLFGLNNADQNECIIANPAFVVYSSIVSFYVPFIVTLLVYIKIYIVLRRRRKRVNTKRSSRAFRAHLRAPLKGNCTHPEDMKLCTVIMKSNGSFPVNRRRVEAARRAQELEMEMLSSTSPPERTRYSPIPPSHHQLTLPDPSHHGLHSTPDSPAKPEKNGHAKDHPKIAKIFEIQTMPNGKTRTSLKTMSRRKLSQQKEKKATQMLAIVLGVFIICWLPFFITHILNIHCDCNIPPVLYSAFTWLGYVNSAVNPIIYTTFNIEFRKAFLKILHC
T2 sequence (P28223 whole entry): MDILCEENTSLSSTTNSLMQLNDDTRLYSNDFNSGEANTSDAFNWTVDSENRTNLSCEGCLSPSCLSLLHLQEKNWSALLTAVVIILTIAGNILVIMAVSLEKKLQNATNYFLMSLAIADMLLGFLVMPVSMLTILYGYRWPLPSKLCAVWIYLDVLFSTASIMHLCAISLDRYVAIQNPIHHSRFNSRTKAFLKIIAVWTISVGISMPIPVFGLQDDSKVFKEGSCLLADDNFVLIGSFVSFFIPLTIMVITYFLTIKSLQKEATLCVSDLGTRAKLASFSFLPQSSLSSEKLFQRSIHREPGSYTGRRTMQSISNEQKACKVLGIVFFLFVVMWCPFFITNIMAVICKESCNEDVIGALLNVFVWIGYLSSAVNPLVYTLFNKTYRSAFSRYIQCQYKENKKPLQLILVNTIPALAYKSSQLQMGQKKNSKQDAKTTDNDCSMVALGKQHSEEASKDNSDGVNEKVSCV

In the case of `CC(=O)Nc1ccc(-c2cscc2-n2c3c(c4cc(C)ccc42)CN(C)CC3)cn1` [Compound 56], the inhibition at 0.1 µM [1] is reported as 51%, the inhibition at 0.1 µM [2] is reported as 31% and the inhibition at 0.1 µM [3] is reported as 70%. For the same molecule, the inhibition at 1 µM [4] was 10%.
`Cc1ccc2c(c1)c1c(n2-c2cccc(-c3ccc(O)nc3)c2)CCN(C)C1` [Compound 52, 5-(3-(2,8-dimethyl-3,4-dihydro-1H-pyrido[4,3-b]indol-5(2H)-yl)phenyl)pyridin-2-ol] showed an inhibition at 0.1 µM [1] of 55%, an inhibition at 0.1 µM [2] of 76% and an inhibition at 0.1 µM [3] of 14%. It also gave an inhibition at 1 µM [4] of 21%.
Work on `CNC(=O)c1cccc(-c2cscc2-n2c3c(c4cc(C)ccc42)CN(C)CC3)c1` [Compound No. 154] yielded an inhibition at 0.1 µM [1] of 85%, an inhibition at 0.1 µM [2] of 83% and an inhibition at 0.1 µM [3] of 73%. For the same molecule, the inhibition at 0.1 µM [4] was 1%.
Work on `Cc1ccc2c(c1)c1c(n2-c2cscc2-c2c(C)noc2C)CCN(C)C1` [Compound 62] yielded an inhibition at 0.1 µM [1] of 54%, an inhibition at 0.1 µM [2] of 68% and an inhibition at 0.1 µM [3] of 48%. It also gave an inhibition at 1 µM [4] of 16%.
`Cc1cc(C)c2c(c1)c1c(n2-c2cccc3ncccc23)CCN(C)C1` [Compound 47] showed an inhibition at 0.1 µM [1] of 29%, an inhibition at 0.1 µM [2] of 1% and an inhibition at 0.1 µM [3] of 36%. It also gave an inhibition at 1 µM [4] of 19%.
`Cc1ccc2c(c1)c1c(n2-c2cccc(-c3ccc(S(N)(=O)=O)cc3)c2)CCN(C)C1` [Compound No. 158, 3′-(2,8-dimethyl-3,4-dihydro-1H-pyrido[4,3-b]indol-5(2H)-yl)biphenyl-4-sulfonamide] gave an inhibition at 0.1 µM [1] of 62%, an inhibition at 0.1 µM [2] of 91% and an inhibition at 0.1 µM [3] of 26%. The inhibition at 0.1 µM [4] was 1%.
Work on `Cc1ccc2c(c1)c1c(n2-c2cccc(-c3cnc(N(C)C)nc3)c2)CCN(C)C1` [Compound 42, 5-(3-(2,8-dimethyl-3,4-dihydro-1H-pyrido[4,3-b]indol-5(2H)-yl)phenyl)-N,N-dimethylpyrimidin-2-amine] yielded an inhibition at 0.1 µM [1] of 11%, an inhibition at 0.1 µM [2] of 62% and an inhibition at 0.1 µM [3] of 31%. The inhibition at 1 µM [4] was 17%.
`Cc1ccc2c(c1)c1c(n2-c2ccc(-c3ccc(C)nc3)cn2)CCN(C)C1` [Compound No. 156, 2,8-dimethyl-5-(6′-methyl-3,3′-bipyridin-6-yl)-2,3,4,5-tetrahydro-1H-pyrido[4,3-b]indole] showed an inhibition at 0.1 µM [1] of 41%, an inhibition at 0.1 µM [2] of 90% and an inhibition at 0.1 µM [3] of 28%. For the same molecule, the inhibition at 0.1 µM [4] was -7%.
Molecule `Cc1ccc2c(c1)c1c(n2-c2cccc(-c3ccc(F)cc3)c2)CCN(C)C1` [Compound 61, 5-(4′-fluorobiphenyl-3-yl)-2,8-dimethyl-2,3,4,5-tetrahydro-1H-pyrido[4,3-b]indole] has an inhibition at 0.1 µM [1] of 24%, an inhibition at 0.1 µM [2] of 102% and an inhibition at 0.1 µM [3] of 48%. It also gave an inhibition at 1 µM [4] of 36%.
Molecule `Cc1ccc2c(c1)c1c(n2-c2cccc(-c3ccc4[nH]cnc4c3)c2)CCN(C)C1` [Compound 54, 5-(3-(1H-benzo[d]imidazol-5-yl)phenyl)-2,8-dimethyl-2,3,4,5-tetrahydro-1H-pyrido[4,3-b]indole] has an inhibition at 0.1 µM [1] of 33%, an inhibition at 0.1 µM [2] of 92% and an inhibition at 0.1 µM [3] of 26%. For the same molecule, the inhibition at 1 µM [4] was 22%.
Molecule `Cc1ccc2c(c1)c1c(n2-c2ccc(-c3ccncc3)cn2)CCN(C)C1` [Compound No. 132, 5-(3,4′-bipyridin-6-yl)-2,8-dimethyl-2,3,4,5-tetrahydro-1H-pyrido[4,3-b]indole] has an inhibition at 0.1 µM [1] of 2%, an inhibition at 0.1 µM [2] of 83% and an inhibition at 0.1 µM [3] of 23%. The inhibition at 1 µM [4] was 18%.
Molecule `Cc1ccc2c(c1)c1c(n2-c2cscc2-c2cc3ccccc3s2)CCN(C)C1` [Compound No. 151] has an inhibition at 0.1 µM [1] of 102%, an inhibition at 0.1 µM [2] of 32% and an inhibition at 0.1 µM [3] of 90%. The inhibition at 0.1 µM [4] was 1%.
`Cc1ccc2c(c1)c1c(n2-c2cccc(-c3sccc3C)c2)CCN(C)C1` [Compound 43, 2,8-dimethyl-5-(3-(3-methylthiophen-2-yl)phenyl)-2,3,4,5-tetrahydro-1H-pyrido[4,3-b]indole] showed an inhibition at 0.1 µM [1] of 39%, an inhibition at 0.1 µM [2] of 102% and an inhibition at 0.1 µM [3] of 33%. For the same molecule, the inhibition at 1 µM [4] was 26%.
`Cc1ccc2c(c1)c1c(n2-c2cscc2-c2ccc(F)nc2)CCN(C)C1` [Compound 35] gave an inhibition at 0.1 µM [1] of 66%, an inhibition at 0.1 µM [2] of 82% and an inhibition at 0.1 µM [3] of 93%. The inhibition at 1 µM [4] was 17%.
`Cc1cc(C)c2c(c1)c1c(n2-c2cccc(-c3ccncc3)c2)CCN(C)C1` [Compound 57, 2,6,8-trimethyl-5-(3-(pyridin-4-yl)phenyl)-2,3,4,5-tetrahydro-1H-pyrido[4,3-b]indole] gave an inhibition at 0.1 µM [1] of 26%, an inhibition at 0.1 µM [2] of 70% and an inhibition at 0.1 µM [3] of 39%. It also gave an inhibition at 1 µM [4] of 31%.
`Cc1ccc2c(c1)c1c(n2-c2cccc(-c3ccc(C)nc3)c2)CCN(C)C1` [Compound 60, 2,8-dimethyl-5-(3-(6-methylpyridin-3-yl)phenyl)-2,3,4,5-tetrahydro-1H-pyrido[4,3-b]indole] showed an inhibition at 0.1 µM [1] of 62%, an inhibition at 0.1 µM [2] of 102% and an inhibition at 0.1 µM [3] of 41%. The inhibition at 1 µM [4] was 24%.
`Cc1ccc2c(c1)c1c(n2-c2cccc(-c3cc4ccccc4s3)c2)CCN(C)C1` [Compound 51, 5-(3-(benzo[b]thiophen-2-yl)phenyl)-2,8-dimethyl-2,3,4,5-tetrahydro-1H-pyrido[4,3-b]indole] gave an inhibition at 0.1 µM [1] of 5%, an inhibition at 0.1 µM [2] of 86% and an inhibition at 0.1 µM [3] of 13%. The inhibition at 1 µM [4] was 3%.
Molecule `Cc1ccc2c(c1)c1c(n2-c2cscc2-c2cncc3ccccc23)CCN(C)C1` [Compound 34] has an inhibition at 0.1 µM [1] of 56%, an inhibition at 0.1 µM [2] of 57% and an inhibition at 0.1 µM [3] of 43%. It also gave an inhibition at 1 µM [4] of 31%.
With `Cc1ccc2c(c1)c1c(n2-c2cscc2-c2cccc3[nH]ncc23)CCN(C)C1` [Compound 41] the inhibition at 0.1 µM [1] was 94%, the inhibition at 0.1 µM [2] was 84% and the inhibition at 0.1 µM [3] was 96%. It also gave an inhibition at 1 µM [4] of 24%.
In the case of `Cc1ccc2c(c1)c1c(n2-c2ccc(-c3cccc4ccccc34)cn2)CCN(C)C1` [Compound No. 141, 2,8-dimethyl-5-(5-(naphthalen-1-yl)pyridin-2-yl)-2,3,4,5-tetrahydro-1H-pyrido[4,3-b]indole], the inhibition at 0.1 µM [1] is reported as 87%, the inhibition at 0.1 µM [2] is reported as 61% and the inhibition at 0.1 µM [3] is reported as 33%. It also gave an inhibition at 1 µM [4] of 15%.
In the case of `Cc1ccc2c(c1)c1c(n2-c2cscc2-c2sccc2C)CCN(C)C1` [Compound 39], the inhibition at 0.1 µM [1] is reported as 83%, the inhibition at 0.1 µM [2] is reported as 84% and the inhibition at 0.1 µM [3] is reported as 97%. For the same molecule, the inhibition at 1 µM [4] was 54%.
`CNC(=O)c1ccc(-c2cscc2-n2c3c(c4cc(C)ccc42)CN(C)CC3)cc1` [Compound No. 155] was tested, and the inhibition at 0.1 µM [1] was 69%, the inhibition at 0.1 µM [2] was 27% and the inhibition at 0.1 µM [3] was 94%. For the same molecule, the inhibition at 0.1 µM [4] was 1%.
With `CC(=O)Nc1ccc(-c2ccccc2-n2c3c(c4cc(C)ccc42)CN(C)CC3)cn1` [Compound No. 83, N-(5-(2-(2,8-dimethyl-3,4-dihydro-1H-pyrido[4,3-b]indol-5(2H)-yl)phenyl)pyridin-2-yl)acetamide] the inhibition at 0.1 µM [1] was 11%, the inhibition at 0.1 µM [2] was 41% and the inhibition at 0.1 µM [3] was 15%. It also gave an inhibition at 1 µM [4] of 15%.
Molecule `CNC(=O)c1ccc(-c2cscc2-n2c3c(c4cc(C)ccc42)CN(C)CC3)cn1` [Compound No. 73] has an inhibition at 0.1 µM [1] of 48%, an inhibition at 0.1 µM [2] of 64% and an inhibition at 0.1 µM [3] of 66%. The inhibition at 1 µM [4] was 21%.
In the case of `CC(=O)Nc1ccc(-c2ccc(-n3c4c(c5cc(C)ccc53)CN(C)CC4)nc2)cn1` [Compound No. 139, N-(6′-(2,8-dimethyl-3,4-dihydro-1H-pyrido[4,3-b]indol-5(2H)-yl)-3,3′-bipyridin-6-yl)acetamide], the inhibition at 0.1 µM [1] is reported as -4%, the inhibition at 0.1 µM [2] is reported as 64% and the inhibition at 0.1 µM [3] is reported as 13%. For the same molecule, the inhibition at 1 µM [4] was 16%.
Work on `Cc1ccc2c(c1)c1c(n2-c2ccc3nc(C)ccc3c2)CCN(C)C1` [Compound No. 157, 2,8-dimethyl-5-(2-methyl-quinolin-6-yl)-2,3,4,5-tetrahydro-1H-pyrido[4,3-b]indole] yielded an inhibition at 0.1 µM [1] of 20%, an inhibition at 0.1 µM [2] of 88% and an inhibition at 0.1 µM [3] of 16%. It also gave an inhibition at 0.1 µM [4] of -6%.
`Cc1csc(-c2cccc(-n3c4c(c5cc(C)ccc53)CN(C)CC4)c2)c1` [Compound No. 63, 2,8-dimethyl-5-(3-(4-methylthiophen-2-yl)phenyl)-2,3,4,5-tetrahydro-1H-pyrido[4,3-b]indole] gave an inhibition at 0.1 µM [1] of 25%, an inhibition at 0.1 µM [2] of 101% and an inhibition at 0.1 µM [3] of 25%. It also gave an inhibition at 1 µM [4] of 19%.
Work on `Cc1ccc2c(c1)c1c(n2-c2ccccc2-c2ccc(C)s2)CCN(C)C1` [Compound No. 81, 2,8-dimethyl-5-(2-(5-methylthiophen-2-yl)phenyl)-2,3,4,5-tetrahydro-1H-pyrido[4,3-b]indole] yielded an inhibition at 0.1 µM [1] of 69%, an inhibition at 0.1 µM [2] of 87% and an inhibition at 0.1 µM [3] of 72%. It also gave an inhibition at 1 µM [4] of 19%.
